Source: ChEMBL document CHEMBL1201862, “PubChem BioAssay data set” (2004)
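Grown in 96-well plates, cells were treated for 48 hours with each compound at five concentrations. Insufficient inhibition: endpoint recorded as highest concentration tested. GI50 is the concentration that inhibits growth by half.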 Activity calls are given as the source filed them. Rule as the data show it: active = GI50 up to about 1.1 µM and inactive = higher.

How the values were obtained:
Assay in all cases: NCI-60 cell line screen, 48 h
[1] = system: KM12
[2] = system: SNB-19
[3] = system: NCI-H522
[4] = system: RPMI-8226
[5] = system: U-251
[6] = system: HCT-116
[7] = system: 786-0
[8] = system: UO-31
[9] = system: NCI-H460
[10] = system: K562
[11] = system: SN12C
[12] = system: MOLT-4
[13] = system: OVCAR-3
[14] = system: IGROV-1
[15] = system: HL-60
[16] = system: SF-295
[17] = system: HCT-15
[18] = system: SF-268
[19] = system: NCI/ADR-RES

SMILES	GI50 [1]	GI50 [2]	GI50 [3]	GI50 [4]	GI50 [5]	GI50 [6]	GI50 [7]	GI50 [8]	GI50 [9]	GI50 [10]	GI50 [11]	GI50 [12]	GI50 [13]	GI50 [14]	GI50 [15]	GI50 [16]	GI50 [17]	GI50 [18]	GI50 [19]
O=C1c2ccccc2-c2nc3ccncc3n21	> 100 µM (inactive)	> 100 µM (inactive)	> 100 µM (inactive)	> 100 µM (inactive)	> 100 µM (inactive)	30.5 µM (inactive)	> 100 µM (inactive)	> 100 µM (inactive)	> 100 µM (inactive)	> 100 µM (inactive)	> 100 µM (inactive)	> 100 µM (inactive)	> 100 µM (inactive)	> 100 µM (inactive)	> 100 µM (inactive)	> 100 µM (inactive)	> 100 µM	> 100 µM (inactive)	> 100 µM (inactive)
NS(=O)(=O)c1cc(C(=O)O)c(O)c2ccccc12	> 100 µM (inactive)	> 100 µM (inactive)	> 100 µM (inactive)	> 100 µM (inactive)	> 100 µM (inactive)	> 100 µM (inactive)	> 100 µM (inactive)	> 100 µM (inactive)	> 100 µM (inactive)	> 100 µM (inactive)	> 100 µM (inactive)	> 100 µM (inactive)	> 100 µM (inactive)	> 100 µM (inactive)	> 100 µM (inactive)	> 100 µM (inactive)	> 100 µM	> 100 µM (inactive)	> 100 µM (inactive)
COc1ccc(C2Oc3ccc(Cl)cc3C=C2[N+](=O)[O-])cc1 (configuration not stated)	> 100 µM (inactive)	> 100 µM (inactive)	> 100 µM (inactive)	> 100 µM (inactive)	> 100 µM (inactive)	> 100 µM (inactive)	> 100 µM (inactive)	> 100 µM (inactive)	> 100 µM (inactive)	> 100 µM (inactive)	> 100 µM (inactive)	> 100 µM (inactive)	> 100 µM (inactive)	> 100 µM (inactive)	> 100 µM (inactive)	> 100 µM (inactive)	> 100 µM	> 100 µM (inactive)	> 100 µM (inactive)
CN(C)CCCN1c2ccc([N+](=O)[O-])cc2CCc2cc([N+](=O)[O-])ccc21	14.8 µM (inactive)	17.8 µM (inactive)	16.9 µM (inactive)	20.4 µM (inactive)	16.2 µM (inactive)	14.4 µM (inactive)	12.1 µM (inactive)	22.5 µM (inactive)	15.1 µM (inactive)	19.4 µM (inactive)	15.8 µM (inactive)	14.5 µM (inactive)	15.5 µM (inactive)	14.9 µM (inactive)	13.6 µM (inactive)	15.6 µM (inactive)	16.7 µM	15.4 µM (inactive)	14.3 µM (inactive)
Cc1cc2nc3c(C#N)c4c(c(-c5ccc(Cl)cc5)n3c2cc1C)CCC4	22 µM (inactive)	20.8 µM (inactive)	18.7 µM (inactive)	26.5 µM (inactive)	28.8 µM (inactive)	18.7 µM (inactive)	19.4 µM (inactive)	19.9 µM (inactive)	43.2 µM (inactive)	23.1 µM (inactive)	30.3 µM (inactive)	25.1 µM (inactive)	20.3 µM (inactive)	18.4 µM (inactive)	21.4 µM (inactive)	17.2 µM (inactive)	27.9 µM	24.3 µM (inactive)	41.1 µM (inactive)
CC(=O)NCCC1CN(C(=O)/C=C\I)c2ccccc21 (configuration not stated)	5.7 µM (inactive)	20.4 µM (inactive)	1.78 µM (inactive)	2.08 µM (inactive)	12.9 µM (inactive)	14.6 µM (inactive)	10.6 µM (inactive)	7.69 µM (inactive)	9.75 µM (inactive)	3.76 µM (inactive)	4.97 µM (inactive)	5.53 µM (inactive)	15 µM (inactive)	15.1 µM (inactive)	2.7 µM (inactive)	15.3 µM (inactive)	7.71 µM	15.5 µM (inactive)	25.5 µM (inactive)
N#Cc1c(N2CCCC2)nsc1Nc1ccc(F)cc1	> 100 µM (inactive)	> 100 µM (inactive)	57.9 µM (inactive)	> 100 µM (inactive)	> 100 µM (inactive)	> 100 µM (inactive)	> 100 µM (inactive)	> 10 µM (inactive)	> 100 µM (inactive)	> 100 µM (inactive)	> 100 µM (inactive)	> 100 µM (inactive)	> 100 µM (inactive)	> 100 µM (inactive)	> 100 µM (inactive)	> 100 µM (inactive)	> 100 µM	> 100 µM (inactive)	> 100 µM (inactive)
COc1cccc(C2CC(=O)c3cccn32)c1 (configuration not stated)	> 100 µM (inactive)	> 100 µM (inactive)	> 100 µM (inactive)	> 100 µM (inactive)	> 100 µM (inactive)	> 100 µM (inactive)	> 100 µM (inactive)	29.4 µM (inactive)		> 100 µM (inactive)	> 100 µM (inactive)	71.8 µM (inactive)	> 100 µM (inactive)	> 100 µM (inactive)	32.4 µM (inactive)	> 100 µM (inactive)	> 100 µM	69.3 µM (inactive)	> 100 µM (inactive)
N#Cc1nc(/C=C/c2ccccc2)oc1N	> 100 µM (inactive)	> 100 µM (inactive)	8.2 µM (inactive)	34.5 µM (inactive)	> 100 µM (inactive)	> 100 µM (inactive)	> 100 µM (inactive)	7.26 µM (inactive)	> 100 µM (inactive)	> 100 µM (inactive)	> 100 µM (inactive)	13.7 µM (inactive)	> 100 µM (inactive)	> 100 µM (inactive)	> 10 µM (inactive)	> 100 µM (inactive)	> 100 µM	> 100 µM (inactive)	> 100 µM (inactive)
c1ccc(SCCc2ccncc2)cc1	78.7 µM (inactive)	> 100 µM (inactive)	31 µM (inactive)	20.5 µM (inactive)	> 100 µM (inactive)	> 100 µM (inactive)	> 100 µM (inactive)	45.4 µM (inactive)	> 100 µM (inactive)	49.5 µM (inactive)	> 100 µM (inactive)	17.7 µM (inactive)	40.6 µM (inactive)	> 100 µM (inactive)	50.6 µM (inactive)	39.5 µM (inactive)	> 100 µM	> 100 µM (inactive)	58.7 µM (inactive)
O=C1N/C(=N/N=C/c2c[nH]c3ccccc23)N/C1=C\c1c[nH]c2ccccc12	21 µM (inactive)	69.7 µM (inactive)	11.9 µM (inactive)	12.9 µM (inactive)	17.3 µM (inactive)	19.1 µM (inactive)	17.8 µM (inactive)		36.8 µM (inactive)	14.7 µM (inactive)	34.9 µM (inactive)	10.5 µM (inactive)	14.7 µM (inactive)	19.1 µM (inactive)	18.9 µM (inactive)	21.4 µM (inactive)	23 µM	20.4 µM (inactive)	27.3 µM (inactive)
Cc1ncc(C/N=C/c2ccc(Cl)cc2)c(N)n1	> 100 µM (inactive)	> 100 µM (inactive)	> 100 µM (inactive)	> 100 µM (inactive)	> 100 µM (inactive)	> 100 µM (inactive)	> 100 µM (inactive)	> 100 µM (inactive)	> 100 µM (inactive)	> 100 µM (inactive)	> 100 µM (inactive)	> 100 µM (inactive)	> 100 µM (inactive)	> 100 µM (inactive)	> 100 µM (inactive)	> 100 µM (inactive)	> 100 µM	> 100 µM (inactive)	> 100 µM (inactive)
COC(=O)c1c(OC(C)=O)ccc2c1c1c(OC(C)=O)c3ccccc3c(OC(C)=O)c1n2Cc1ccccc1	1.49 µM (inactive)	9.51 µM (inactive)	0.783 µM (active)	1.52 µM (inactive)	2.43 µM (inactive)	3.96 µM (inactive)	12.1 µM (inactive)	2.21 µM (inactive)	2.24 µM (inactive)	5.33 µM (inactive)	10.5 µM (inactive)	7.46 µM (inactive)	1.21 µM (inactive)	4.09 µM (inactive)	3.33 µM (inactive)	2.55 µM (inactive)	4.78 µM	3.44 µM (inactive)	7.06 µM (inactive)
CC(C)c1nc(Cl)nc(Cl)c1Cl	0.293 µM (active)	0.847 µM (active)	0.303 µM (active)	0.142 µM (active)	0.61 µM (active)	0.0344 µM (active)	0.104 µM (active)	0.0711 µM (active)	1.29 µM (inactive)	< 0.01 µM (active)	0.482 µM (active)	0.0284 µM (active)	0.142 µM (active)	0.172 µM (active)	0.0125 µM (active)	2.82 µM (inactive)	0.279 µM	1.16 µM (inactive)	0.295 µM (active)
COC(=O)/N=[N+](\[O-])C(c1ccc(Cl)cc1)c1ccc(Cl)cc1	32.2 µM (inactive)	50.4 µM (inactive)	32.6 µM (inactive)	21.9 µM (inactive)	39.2 µM (inactive)	23.8 µM (inactive)	27.1 µM (inactive)	15.5 µM (inactive)	38.9 µM (inactive)	49.1 µM (inactive)	56.1 µM (inactive)	39.7 µM (inactive)	57.7 µM (inactive)	40.1 µM (inactive)	20.7 µM (inactive)		30.8 µM	69.5 µM (inactive)	38.2 µM (inactive)
